Reference: PubChem BioAssay AID1918942 (Molecular Pharmacology Branch, DTP, NCI, 2023)

Test system: 743489-274-T-PDC complex spheroid viability
Assay: Anticancer human tumor 743489-274-T-PDC patient-derived renal cell carcinoma cell line growth inhibition
Conditions: for IC50: curve of first compound; for viability, T/C: stronger effect = lower value
Procedure, shortened: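 Multicellular complex spheroids of tumor cells with human endothelial cells (HUVEC) and mesenchymal stem cells; the LSD1 inhibitor iadademstat was combined with standard-of-care or investigational agents. Top concentration at or near clinical Cmax, half-log dilutions; final DMSO ≤0.25%.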

[1] = second compound 0.1 µM, first compound 0.00316 µM
[2] = second compound 0.1 µM, first compound 0.01 µM
[3] = second compound 0.1 µM, first compound 0.0316 µM
[4] = second compound 0.1 µM, first compound 0.1 µM
[5] = second compound 0.316 µM, first compound 0.00316 µM
[6] = second compound 0.316 µM, first compound 0.01 µM
[7] = second compound 0.316 µM, first compound 0.0316 µM
[8] = second compound 0.316 µM, first compound 0.1 µM
[9] = second compound 1 µM, first compound 0.00316 µM
[10] = second compound 1 µM, first compound 0.01 µM
[11] = second compound 1 µM, first compound 0.0316 µM
[12] = second compound 1 µM, first compound 0.1 µM
[13] = second compound 3.16 µM, first compound 0.00316 µM
[14] = second compound 3.16 µM, first compound 0.01 µM
[15] = second compound 3.16 µM, first compound 0.0316 µM
[16] = second compound 3.16 µM, first compound 0.1 µM
[17] = second compound 10 µM, first compound 0.00316 µM
[18] = second compound 10 µM, first compound 0.01 µM
[19] = second compound 10 µM, first compound 0.0316 µM
[20] = second compound 10 µM, first compound 0.1 µM
[21] = second compound 0.1 µM, first compound 0.00949 µM
[22] = second compound 0.1 µM, first compound 0.03 µM
[23] = second compound 0.1 µM, first compound 0.0949 µM
[24] = second compound 0.1 µM, first compound 0.3 µM
[25] = second compound 0.1 µM, first compound 0.949 µM
[26] = second compound 0.1 µM, first compound 3 µM
[27] = second compound 0.316 µM, first compound 0.00949 µM
[28] = second compound 0.316 µM, first compound 0.03 µM
[29] = second compound 0.316 µM, first compound 0.0949 µM
[30] = second compound 0.316 µM, first compound 0.3 µM
[31] = second compound 0.316 µM, first compound 0.949 µM
[32] = second compound 0.316 µM, first compound 3 µM
[33] = second compound 1 µM, first compound 0.00949 µM
[34] = second compound 1 µM, first compound 0.03 µM
[35] = second compound 1 µM, first compound 0.0949 µM
[36] = second compound 1 µM, first compound 0.3 µM
[37] = second compound 1 µM, first compound 0.949 µM
[38] = second compound 1 µM, first compound 3 µM
[39] = second compound 3.16 µM, first compound 0.00949 µM
[40] = second compound 3.16 µM, first compound 0.03 µM
[41] = second compound 3.16 µM, first compound 0.0949 µM
[42] = second compound 3.16 µM, first compound 0.3 µM
[43] = second compound 3.16 µM, first compound 0.949 µM
[44] = second compound 3.16 µM, first compound 3 µM
[45] = second compound 10 µM, first compound 0.00949 µM
[46] = second compound 10 µM, first compound 0.03 µM
[47] = second compound 10 µM, first compound 0.0949 µM
[48] = second compound 10 µM, first compound 0.3 µM
[49] = second compound 10 µM, first compound 0.949 µM
[50] = second compound 10 µM, first compound 3 µM
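Note: spheroids exposed to compounds for 7 days before readout.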
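Throughout, for viability, T/C: 100% = DMSO vehicle control wells.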

COc1cc(Nc2ncc3c(n2)-c2ccc(Cl)cc2C(c2c(F)cccc2OC)=NC3)ccc1C(=O)O + NC1CCC(NC2CC2c2ccccc2)CC1
IC50 (second compound 0.1 µM): > 1000 nM | IC50 (second compound 0.316 µM): > 1000 nM | IC50 (second compound 1 µM): > 1000 nM | IC50 (second compound 3.16 µM): > 1000 nM | IC50 (second compound 10 µM): > 1000 nM | viability, T/C [1]: 104% | viability, T/C [2]: 104% | viability, T/C [3]: 92.6% | viability, T/C [4]: 86.2% | viability, T/C (second compound 0.1 µM, first compound 0.316 µM): 90.3% | viability, T/C (second compound 0.1 µM, first compound 1 µM): 82.2% | viability, T/C [5]: 100% | viability, T/C [6]: 96% | viability, T/C [7]: 103% | viability, T/C [8]: 82.5% | viability, T/C (second compound 0.316 µM, first compound 0.316 µM): 89.7% | viability, T/C (second compound 0.316 µM, first compound 1 µM): 85% | viability, T/C [9]: 104% | viability, T/C [10]: 105% | viability, T/C [11]: 88.8% | viability, T/C [12]: 86.6% | viability, T/C (second compound 1 µM, first compound 0.316 µM): 92.5% | viability, T/C (second compound 1 µM, first compound 1 µM): 97.2% | viability, T/C [13]: 92.6% | viability, T/C [14]: 100% | viability, T/C [15]: 100% | viability, T/C [16]: 79.4% | viability, T/C (second compound 3.16 µM, first compound 0.316 µM): 104% | viability, T/C (second compound 3.16 µM, first compound 1 µM): 97.2% | viability, T/C [17]: 102% | viability, T/C [18]: 111% | viability, T/C [19]: 105% | viability, T/C [20]: 99.2% | viability, T/C (second compound 10 µM, first compound 0.316 µM): 102% | viability, T/C (second compound 10 µM, first compound 1 µM): 93.8%

Cn1ncnc1C1c2n[nH]c(=O)c3cc(F)cc(c23)NC1c1ccc(F)cc1 (stereo not given) + NC1CCC(NC2CC2c2ccccc2)CC1
IC50 (second compound 0.1 µM): > 100 nM | IC50 (second compound 0.316 µM): > 100 nM | IC50 (second compound 1 µM): > 100 nM | IC50 (second compound 3.16 µM): > 100 nM | IC50 (second compound 10 µM): > 100 nM | viability, T/C (second compound 0.1 µM, first compound 0.000316 µM): 121% | viability, T/C (second compound 0.1 µM, first compound 0.001 µM): 99.1% | viability, T/C [1]: 100% | viability, T/C [2]: 103% | viability, T/C [3]: 101% | viability, T/C [4]: 86.2% | viability, T/C (second compound 0.316 µM, first compound 0.000316 µM): 105% | viability, T/C (second compound 0.316 µM, first compound 0.001 µM): 102% | viability, T/C [5]: 93.6% | viability, T/C [6]: 115% | viability, T/C [7]: 92% | viability, T/C [8]: 103% | viability, T/C (second compound 1 µM, first compound 0.000316 µM): 104% | viability, T/C (second compound 1 µM, first compound 0.001 µM): 108% | viability, T/C [9]: 90.2% | viability, T/C [10]: 81.7% | viability, T/C [11]: 90.2% | viability, T/C [12]: 84% | viability, T/C (second compound 3.16 µM, first compound 0.000316 µM): 101% | viability, T/C (second compound 3.16 µM, first compound 0.001 µM): 101% | viability, T/C [13]: 101% | viability, T/C [14]: 103% | viability, T/C [15]: 101% | viability, T/C [16]: 94% | viability, T/C (second compound 10 µM, first compound 0.000316 µM): 111% | viability, T/C (second compound 10 µM, first compound 0.001 µM): 98% | viability, T/C [17]: 91.7% | viability, T/C [18]: 103% | viability, T/C [19]: 90.4% | viability, T/C [20]: 97.7%

NS(=O)(=O)OCC1CC(n2ccc3c(NC4CCc5ccccc54)ncnc32)CC1O (stereo not given) + NC1CCC(NC2CC2c2ccccc2)CC1
IC50 (second compound 0.1 µM): > 3000 nM | IC50 (second compound 0.316 µM): > 3000 nM | IC50 (second compound 1 µM): > 3000 nM | IC50 (second compound 3.16 µM): > 3000 nM | IC50 (second compound 10 µM): > 3000 nM | viability, T/C [21]: 98.6% | viability, T/C [22]: 103% | viability, T/C [23]: 132% | viability, T/C [24]: 133% | viability, T/C [25]: 135% | viability, T/C [26]: 144% | viability, T/C [27]: 92.8% | viability, T/C [28]: 103% | viability, T/C [29]: 121% | viability, T/C [30]: 135% | viability, T/C [31]: 146% | viability, T/C [32]: 147% | viability, T/C [33]: 114% | viability, T/C [34]: 108% | viability, T/C [35]: 113% | viability, T/C [36]: 142% | viability, T/C [37]: 135% | viability, T/C [38]: 121% | viability, T/C [39]: 98.5% | viability, T/C [40]: 107% | viability, T/C [41]: 128% | viability, T/C [42]: 141% | viability, T/C [43]: 151% | viability, T/C [44]: 151% | viability, T/C [45]: 90.1% | viability, T/C [46]: 105% | viability, T/C [47]: 132% | viability, T/C [48]: 135% | viability, T/C [49]: 129% | viability, T/C [50]: 102%

O=C(C=Cc1cccc(S(=O)(=O)Nc2ccccc2)c1)NO + NC1CCC(NC2CC2c2ccccc2)CC1
IC50 (second compound 0.1 µM): > 3000 nM | IC50 (second compound 0.316 µM): 2840 nM | IC50 (second compound 1 µM): 2230 nM | IC50 (second compound 3.16 µM): > 3000 nM | IC50 (second compound 10 µM): 1910 nM | viability, T/C [21]: 103% | viability, T/C [22]: 94.4% | viability, T/C [23]: 84.1% | viability, T/C [24]: 67.9% | viability, T/C [25]: 81.7% | viability, T/C [26]: 62.1% | viability, T/C [27]: 102% | viability, T/C [28]: 96.5% | viability, T/C [29]: 87.8% | viability, T/C [30]: 80.9% | viability, T/C [31]: 69.3% | viability, T/C [32]: 47.4% | viability, T/C [33]: 100% | viability, T/C [34]: 107% | viability, T/C [35]: 98.5% | viability, T/C [36]: 78.7% | viability, T/C [37]: 78.5% | viability, T/C [38]: 41.2% | viability, T/C [39]: 108% | viability, T/C [40]: 105% | viability, T/C [41]: 95.5% | viability, T/C [42]: 78.2% | viability, T/C [43]: 69.2% | viability, T/C [44]: 51.9% | viability, T/C [45]: 109% | viability, T/C [46]: 96.2% | viability, T/C [47]: 106% | viability, T/C [48]: 74.9% | viability, T/C [49]: 65.6% | viability, T/C [50]: 41.4%
